Numbers after ± are expanded uncertainties.
Assay: wn = mass fraction of the nth substance listed
Conditions: Fluid (supercritical or subcritical phases), isochoric method, w1 = 0.5001

FC(F)C(F)(F)F [pentafluoroethane] + FCF
Conditions | mass density [kg/m3]
363 K, 13894 kPa | 858.1 ± 1.7
364 K, 6970 kPa | 475.8 ± 1.3
364 K, 7223 kPa | 525.7 ± 1.3
364 K, 7494 kPa | 571.2 ± 1.3
364 K, 7828 kPa | 614.6 ± 1.4
364 K, 10192 kPa | 760.2 ± 1.6
364 K, 14207 kPa | 858 ± 1.7
365 K, 7077 kPa | 475.8 ± 1.2
365 K, 7344 kPa | 525.7 ± 1.3
365 K, 7632 kPa | 571.2 ± 1.3
365 K, 7982 kPa | 614.6 ± 1.3
365 K, 10427 kPa | 760.1 ± 1.6
365 K, 14520 kPa | 857.9 ± 1.7
366 K, 7184 kPa | 475.8 ± 1.2
366 K, 7465 kPa | 525.6 ± 1.2
366 K, 7771 kPa | 571.1 ± 1.3
366 K, 8137 kPa | 614.5 ± 1.3
366 K, 10664 kPa | 760 ± 1.6
366 K, 14835 kPa | 857.8 ± 1.7
367 K, 7291 kPa | 475.8 ± 1.2
367 K, 7587 kPa | 525.6 ± 1.2
367 K, 7907 kPa | 571.1 ± 1.3
367 K, 8294 kPa | 614.5 ± 1.3
367 K, 10900 kPa | 760 ± 1.6
367 K, 15148 kPa | 857.7 ± 1.7
368 K, 7397 kPa | 475.8 ± 1.2
368 K, 7708 kPa | 525.6 ± 1.2
368 K, 8044 kPa | 571.1 ± 1.3
368 K, 8449 kPa | 614.5 ± 1.3
368 K, 11133 kPa | 759.9 ± 1.6
368 K, 15462 kPa | 857.7 ± 1.7
369 K, 7504 kPa | 475.7 ± 1.2
369 K, 7831 kPa | 525.6 ± 1.2
369 K, 8183 kPa | 571 ± 1.3
369 K, 8605 kPa | 614.4 ± 1.3
369 K, 11369 kPa | 759.9 ± 1.6
369 K, 15777 kPa | 857.6 ± 1.7
370 K, 7612 kPa | 475.7 ± 1.1
370 K, 7953 kPa | 525.5 ± 1.2
370 K, 8323 kPa | 571 ± 1.3
370 K, 8762 kPa | 614.4 ± 1.3
370 K, 11608 kPa | 759.8 ± 1.5
370 K, 16094 kPa | 857.5 ± 1.7
371 K, 7719 kPa | 475.7 ± 1.1
371 K, 8075 kPa | 525.5 ± 1.2
371 K, 8460 kPa | 571 ± 1.2
371 K, 8917 kPa | 614.3 ± 1.3
371 K, 11844 kPa | 759.7 ± 1.5
371 K, 16410 kPa | 857.4 ± 1.7
372 K, 7825 kPa | 475.7 ± 1.1
372 K, 8198 kPa | 525.5 ± 1.2
372 K, 8601 kPa | 571 ± 1.2
372 K, 9073 kPa | 614.3 ± 1.3
372 K, 12081 kPa | 759.7 ± 1.5
372 K, 16724 kPa | 857.4 ± 1.7
373 K, 7931 kPa | 475.7 ± 1.1
373 K, 8321 kPa | 525.5 ± 1.2
373 K, 8740 kPa | 570.9 ± 1.2
373 K, 9230 kPa | 614.3 ± 1.3
373 K, 12318 kPa | 759.6 ± 1.5
373 K, 17037 kPa | 857.3 ± 1.7
374 K, 8039 kPa | 475.6 ± 1.1
374 K, 8445 kPa | 525.4 ± 1.2
374 K, 8878 kPa | 570.9 ± 1.2
374 K, 9389 kPa | 614.2 ± 1.3
374 K, 12556 kPa | 759.6 ± 1.5
374 K, 17355 kPa | 857.2 ± 1.7
375 K, 8147 kPa | 475.6 ± 1.1
375 K, 8567 kPa | 525.4 ± 1.2
375 K, 9016 kPa | 570.9 ± 1.2
375 K, 9544 kPa | 614.2 ± 1.3
375 K, 12795 kPa | 759.5 ± 1.5
375 K, 17669 kPa | 857.1 ± 1.7
376 K, 8254 kPa | 475.6 ± 1.1
376 K, 8690 kPa | 525.4 ± 1.1
376 K, 9155 kPa | 570.8 ± 1.2
376 K, 9701 kPa | 614.2 ± 1.3
376 K, 13033 kPa | 759.5 ± 1.5
376 K, 17984 kPa | 857.1 ± 1.7
377 K, 8362 kPa | 475.6 ± 1.1
377 K, 8813 kPa | 525.4 ± 1.1
377 K, 9295 kPa | 570.8 ± 1.2
377 K, 9858 kPa | 614.1 ± 1.3
377 K, 13272 kPa | 759.4 ± 1.5
377 K, 18301 kPa | 857 ± 1.7
378 K, 8469 kPa | 475.6 ± 1.1
378 K, 8937 kPa | 525.3 ± 1.1
378 K, 9437 kPa | 570.8 ± 1.2
378 K, 10018 kPa | 614.1 ± 1.3
378 K, 13511 kPa | 759.3 ± 1.5
378 K, 18619 kPa | 856.9 ± 1.7
379 K, 8575 kPa | 475.5 ± 1.1
379 K, 9060 kPa | 525.3 ± 1.1
379 K, 9576 kPa | 570.7 ± 1.2
379 K, 10174 kPa | 614 ± 1.3
379 K, 13747 kPa | 759.3 ± 1.5
379 K, 18935 kPa | 856.8 ± 1.7
380 K, 8683 kPa | 475.5 ± 1
380 K, 9183 kPa | 525.3 ± 1.1
380 K, 9715 kPa | 570.7 ± 1.2
380 K, 10331 kPa | 614 ± 1.3
380 K, 13988 kPa | 759.2 ± 1.5
381 K, 8790 kPa | 475.5 ± 1
381 K, 9306 kPa | 525.2 ± 1.1
381 K, 9856 kPa | 570.7 ± 1.2
381 K, 10492 kPa | 614 ± 1.3
381 K, 14227 kPa | 759.2 ± 1.5
382 K, 8897 kPa | 475.5 ± 1
382 K, 9432 kPa | 525.2 ± 1.1
382 K, 9996 kPa | 570.6 ± 1.2
382 K, 10651 kPa | 613.9 ± 1.3
382 K, 14466 kPa | 759.1 ± 1.5
383 K, 9005 kPa | 475.4 ± 1
383 K, 9553 kPa | 525.2 ± 1.1
383 K, 10136 kPa | 570.6 ± 1.2
383 K, 10808 kPa | 613.9 ± 1.3
383 K, 14706 kPa | 759 ± 1.5
384 K, 9112 kPa | 475.4 ± 1
384 K, 9679 kPa | 525.2 ± 1.1
384 K, 10277 kPa | 570.6 ± 1.2
384 K, 10967 kPa | 613.8 ± 1.3
384 K, 14944 kPa | 759 ± 1.5
385 K, 9219 kPa | 475.4 ± 1
385 K, 9804 kPa | 525.1 ± 1.1
385 K, 10418 kPa | 570.5 ± 1.2
385 K, 11125 kPa | 613.8 ± 1.3
385 K, 15188 kPa | 758.9 ± 1.5
386 K, 9326 kPa | 475.4 ± 1
386 K, 9929 kPa | 525.1 ± 1.1
386 K, 10558 kPa | 570.5 ± 1.2
386 K, 11283 kPa | 613.8 ± 1.3
386 K, 15426 kPa | 758.9 ± 1.5
387 K, 9434 kPa | 475.3 ± 1
387 K, 10051 kPa | 525.1 ± 1.1
387 K, 10699 kPa | 570.5 ± 1.2
387 K, 11442 kPa | 613.7 ± 1.3
387 K, 15666 kPa | 758.8 ± 1.5
388 K, 9540 kPa | 475.3 ± 1
388 K, 10174 kPa | 525 ± 1.1
388 K, 10840 kPa | 570.4 ± 1.2
388 K, 11602 kPa | 613.7 ± 1.3
388 K, 15904 kPa | 758.7 ± 1.5
389 K, 9649 kPa | 475.3 ± 1
389 K, 10296 kPa | 525 ± 1.1
389 K, 10980 kPa | 570.4 ± 1.2
389 K, 11761 kPa | 613.6 ± 1.3
389 K, 16147 kPa | 758.7 ± 1.5
390 K, 9756 kPa | 475.3 ± 1
390 K, 10421 kPa | 525 ± 1.1
390 K, 11124 kPa | 570.3 ± 1.2
390 K, 11922 kPa | 613.6 ± 1.3
390 K, 16388 kPa | 758.6 ± 1.5
391 K, 9862 kPa | 475.2 ± 1
391 K, 10547 kPa | 524.9 ± 1.1
391 K, 11263 kPa | 570.3 ± 1.2
391 K, 12081 kPa | 613.6 ± 1.3
391 K, 16627 kPa | 758.6 ± 1.5
392 K, 9969 kPa | 475.2 ± 1
392 K, 10670 kPa | 524.9 ± 1.1
392 K, 11403 kPa | 570.3 ± 1.2
392 K, 12239 kPa | 613.5 ± 1.3
392 K, 16868 kPa | 758.5 ± 1.5
393 K, 10077 kPa | 475.2 ± 1
393 K, 10795 kPa | 524.9 ± 1.1
393 K, 11546 kPa | 570.2 ± 1.2
393 K, 12400 kPa | 613.5 ± 1.3
393 K, 17110 kPa | 758.4 ± 1.5
394 K, 10185 kPa | 475.2 ± 1
394 K, 10920 kPa | 524.9 ± 1.1
394 K, 11688 kPa | 570.2 ± 1.2
394 K, 12560 kPa | 613.4 ± 1.3
394 K, 17351 kPa | 758.4 ± 1.5
395 K, 10292 kPa | 475.1 ± 1
395 K, 11045 kPa | 524.8 ± 1.1
395 K, 11829 kPa | 570.2 ± 1.2
395 K, 12720 kPa | 613.4 ± 1.3
395 K, 17590 kPa | 758.3 ± 1.5
396 K, 10400 kPa | 475.1 ± 1
396 K, 11168 kPa | 524.8 ± 1.1
396 K, 11972 kPa | 570.1 ± 1.2
396 K, 12880 kPa | 613.4 ± 1.3
396 K, 17831 kPa | 758.3 ± 1.5
397 K, 10508 kPa | 475.1 ± 1
397 K, 11292 kPa | 524.8 ± 1.1
397 K, 12113 kPa | 570.1 ± 1.2
397 K, 13040 kPa | 613.3 ± 1.3
397 K, 18073 kPa | 758.2 ± 1.5
398 K, 10616 kPa | 475 ± 1
398 K, 11415 kPa | 524.7 ± 1.1
398 K, 12256 kPa | 570.1 ± 1.2
398 K, 13199 kPa | 613.3 ± 1.3
398 K, 18315 kPa | 758.1 ± 1.5
399 K, 10723 kPa | 475 ± 1
399 K, 11538 kPa | 524.7 ± 1.1
399 K, 12395 kPa | 570 ± 1.2
399 K, 13361 kPa | 613.2 ± 1.3
399 K, 18556 kPa | 758.1 ± 1.5

— the NIST ThermoML archive (doi:10.1021/je0501843)
